The source of these data is ChEMBL document CHEMBL5214978, “Identification of 1,4-Benzodiazepine-2,5-dione Derivatives as Potential Protein Synthesis Inhibitors with Highly Potent Anticancer Activity” (J Med Chem, 2022).

As usually defined, the GI50 is the concentration at which growth is held to half of that of the control.

Holding throughout (assay type): functional
For one experiment, the system named is A549. Description: Anticancer activity against human A549 cells assessed as cell growth inhibition measured after 48 hrs by SRB assay. Background: The SRB assay estimates cell density from bound dye.
For the next experiment, the system named is HCT-116. Description: Anticancer activity against human HCT-116 cells assessed as cell growth inhibition measured after 48 hrs by SRB assay.
A further experiment concerns SF-295. Kind of experiment: Anticancer activity against human SF-295 cells assessed as cell growth inhibition measured after 48 hrs by SRB assay.
A further experiment deals with LOX IMVI. Kind of experiment: Anticancer activity against human LOX IMVI cells assessed as cell growth inhibition measured after 48 hrs by SRB assay.
In experiment [1] the test system is Panel NCI-60 (60 carcinoma cell lines). Description: Anticancer activity against human Panel NCI-60 (60 carcinoma cell lines) line assessed as cell growth inhibition measured after 48 hrs by SRB assay.
The next experiment relates to 786-0. Description: Anticancer activity against human 786-0 cells assessed as cell growth inhibition measured after 48 hrs by SRB assay.

For `COc1cc(C(=O)Nc2cc3c(cc2Oc2cc(C)cc(C)c2)C(=O)N[C@@H](CC(=O)N(C)C)C(=O)N3)cc(OC)c1OC`, the GI50 in the experiment with A549 stood at 140 nM; in the experiment on HCT-116, 30 nM; in the experiment on SF-295 it was 110 nM; in the experiment on LOX IMVI, 20 nM; in experiment [1], 60 nM.
Turning to `COC(=O)CC[C@@H]1NC(=O)c2cc(Oc3cc(C)cc(C)c3)c(NC(=O)c3cc(OC)c(OC)c(OC)c3)cc2NC1=O`, the GI50 with A549 turned out to be 1260 nM; in the experiment on HCT-116, 2080 nM; in the experiment on SF-295, 1100 nM; with LOX IMVI it was 1920 nM; in the experiment with 786-0, 1860 nM; in experiment [1], 1200 nM.
Turning to `COc1cc(C(=O)Nc2cc3c(cc2Oc2cc(C)cc(C)c2)C(=O)N[C@@H](Cc2nnc(C)o2)C(=O)N3)cc(OC)c1OC`, the GI50 with A549 amounted to 1380 nM; in the experiment on HCT-116 it was 1260 nM; in the experiment on SF-295, 940 nM; in the experiment on LOX IMVI, 1280 nM; in the experiment on 786-0, 1420 nM; in experiment [1], 1580 nM.
`COC(=O)C[C@@H]1NC(=O)c2cc(OCCN3CCOCC3)c(NC(=O)c3cc(OC)c(OC)c(OC)c3)cc2NC1=O`: the GI50 (in the experiment on A549; in the experiment with HCT-116; in the experiment on SF-295; in the experiment with LOX IMVI; with 786-0; in experiment [1]) was more than 50000 nM in each case.
For the compound `CCc1noc(C[C@@H]2NC(=O)c3cc(Oc4cc(C)cc(C)c4)c(NC(=O)c4cc(OC)c(OC)c(OC)c4)cc3NC2=O)n1`, the GI50 with A549 turned out to be 140 nM; in the experiment with HCT-116, 260 nM; in the experiment with SF-295 it was 110 nM; with LOX IMVI, 130 nM; with 786-0, 720 nM; in experiment [1], 270 nM.
In the case of `COC(=O)C[C@@H]1NC(=O)c2cc(Oc3cc(C)cc(C)c3)c(NC(=O)c3ccc(F)cc3)cc2NC1=O`, the GI50 (in the experiment with A549; in the experiment with HCT-116; in the experiment on SF-295; with LOX IMVI; with 786-0; in experiment [1]) was more than 50000 nM each time.
Regarding `COC(=O)C[C@@H]1NC(=O)c2cc(Oc3ccc(C(F)(F)F)cc3)c(NC(=O)c3cc(OC)c(OC)c(OC)c3)cc2NC1=O`, the GI50 (in the experiment with A549; in the experiment with HCT-116; in the experiment with SF-295; with LOX IMVI; in the experiment with 786-0; in experiment [1]) was more than 50000 nM throughout.
As to `CCN(CC)C(=O)C[C@@H]1NC(=O)c2cc(Oc3cc(C)c(Br)c(C)c3)c(NC(=O)c3cc(OC)c(OC)c(OC)c3)cc2NC1=O`, the GI50 is 243 nM in the experiment with A549; 172 nM in the experiment on HCT-116; 128 nM in the experiment on LOX IMVI; 1000 nM with 786-0; 234 nM in experiment [1].
With `COC(=O)C[C@H]1NC(=O)c2cc(Oc3cc(C)cc(C)c3)c(NC(=O)c3cc(OC)c(OC)c(OC)c3)cc2NC1=O`, the GI50 (in the experiment on A549; in the experiment on HCT-116; in the experiment with SF-295; in the experiment on LOX IMVI; in the experiment with 786-0; in experiment [1]) was more than 50000 nM each time.
On to `CCCCN(CCCC)C(=O)C[C@@H]1NC(=O)c2cc(Oc3cc(C)cc(C)c3)c(NC(=O)c3cc(OC)c(OC)c(OC)c3)cc2NC1=O`, for which the GI50 in the experiment with A549 is 360 nM; in the experiment on HCT-116, 460 nM; with SF-295, 320 nM; with LOX IMVI, 340 nM; in the experiment with 786-0, 360 nM.
Regarding `CCN(CC)C(=O)C[C@H]1C(=O)Nc2cc(NC(=O)c3cc(OC)c(OC)c(OC)c3Cl)c(Oc3cc(C)cc(C)c3)cc2C(=O)N1C`, the GI50 is 9 nM with A549; 13 nM in the experiment with HCT-116; 12 nM in the experiment on SF-295; less than 5 nM with LOX IMVI; 10 nM with 786-0; 17 nM in experiment [1].
Consider `COC(=O)C[C@@H]1NC(=O)c2cc(OC)c(NC(=O)c3cc(OC)c(OC)c(OC)c3)cc2NC1=O`, for which the GI50 (in the experiment on A549; in the experiment with HCT-116; with SF-295; with LOX IMVI; with 786-0; in experiment [1]) was more than 50000 nM throughout.
For the compound `CCN(CC)C(=O)C[C@@H]1NC(=O)c2cc(Oc3cc(C)cc(C)c3)c(NC(=O)c3cc(OC)c(OC)c(OC)c3)cc2NC1=O`, the GI50 came out at 20 nM with A549; 20 nM with HCT-116; 20 nM in the experiment on SF-295; 20 nM in the experiment on LOX IMVI; 90 nM with 786-0; 30 nM in experiment [1].
Take `COC(=O)C[C@@H]1NC(=O)c2cc(C#Cc3cc(C)cc(C)c3)c(NC(=O)c3cc(OC)c(OC)c(OC)c3)cc2NC1=O`: the GI50 (with A549; in the experiment on HCT-116; in the experiment with SF-295; in the experiment on LOX IMVI; in the experiment on 786-0; in experiment [1]) was more than 50000 nM each time.
As to `CCN(CC)C(=O)C[C@@H]1NC(=O)c2cc(Oc3cc(C)cc(C)c3)c(NC(=O)c3c(F)c(OC)c(OC)c(OC)c3Cl)cc2NC1=O`, the GI50 with A549 stood at 15 nM; in the experiment on HCT-116, 17 nM; in the experiment with SF-295 it was 40 nM; with LOX IMVI, 7 nM; with 786-0, 61 nM; in experiment [1] it was 23 nM.
Consider `COC(=O)C[C@@H]1NC(=O)c2cc(Oc3cc(C)ccc3C)c(NC(=O)c3cc(OC)c(OC)c(OC)c3)cc2NC1=O`, for which the GI50 in the experiment with A549 came out at 1170 nM; in the experiment with HCT-116, 1340 nM; in the experiment on SF-295, 960 nM; in the experiment on LOX IMVI, 1360 nM; with 786-0, 1280 nM; in experiment [1] it was 1350 nM.
Consider `CCN(CC)C(=O)C[C@@H]1NC(=O)c2cc(Oc3cc(C)cc(C)c3)c(NC(=O)c3cc(OC)c(OC)c(OC)c3Br)cc2NC1=O`, for which the GI50 was less than 5 nM in the experiment with A549; more than 5 nM with HCT-116; less than 5 nM in the experiment with SF-295; less than 5 nM in the experiment on LOX IMVI; 7 nM in the experiment on 786-0; less than 5 nM in experiment [1].
For `COC(=O)C[C@@H]1NC(=O)c2cc(Oc3ccccc3)c(NC(=O)c3cc(OC)c(OC)c(OC)c3)cc2NC1=O`, the GI50 (with A549; in the experiment with HCT-116; in the experiment with SF-295; in the experiment with LOX IMVI; with 786-0; in experiment [1]) was more than 50000 nM in each case.
Regarding `CCN(CC)C(=O)C[C@H]1C(=O)Nc2cc(NC(=O)c3c(Cl)c(OC)c(OC)c(OC)c3Br)c(Oc3cc(C)cc(C)c3)cc2C(=O)N1C`, the GI50 in the experiment on A549 came to 74 nM; in the experiment with HCT-116 it was 70 nM; with SF-295 it was 68 nM; in the experiment with LOX IMVI, 39 nM; in the experiment with 786-0, 87 nM; in experiment [1], 68 nM.
For the compound `COC(=O)C[C@@H]1NC(=O)c2cc(Oc3cc(C)cc(C)c3)c(NCc3cc(OC)c(OC)c(OC)c3)cc2NC1=O`, the GI50 (in the experiment with A549; in the experiment with HCT-116; in the experiment with SF-295; in the experiment with LOX IMVI; with 786-0; in experiment [1]) was more than 50000 nM each time.
Consider `COC(=O)C[C@@H]1NC(=O)c2cc(Oc3cc(C)cc(C)c3)c(NC(=O)c3ccc(OC)c(OC)c3OC)cc2NC1=O`, for which the concentration for 50% growth inhibition (GI50) (in the experiment on A549; in the experiment with HCT-116; in the experiment with SF-295; in the experiment on LOX IMVI; in the experiment with 786-0; in experiment [1]) was more than 50000 nM in each case.
Consider `COC(=O)C[C@@H]1NC(=O)c2cc(Oc3ccc(C)c(C)c3)c(NC(=O)c3cc(OC)c(OC)c(OC)c3)cc2NC1=O`, for which the GI50 was 1520 nM in the experiment on A549; 2010 nM in the experiment with HCT-116; 1010 nM in the experiment on SF-295; 2550 nM in the experiment on LOX IMVI; 2400 nM with 786-0; 1910 nM in experiment [1].
As for `COC(=O)C[C@@H]1NC(=O)c2cc(OCCCc3cc(C)cc(C)c3)c(NC(=O)c3cc(OC)c(OC)c(OC)c3)cc2NC1=O`, the 50% growth inhibitory concentration (GI50) (with A549; in the experiment with HCT-116; in the experiment on SF-295; in the experiment with LOX IMVI; in the experiment on 786-0; in experiment [1]) was more than 50000 nM throughout.
In the case of `CCN(CC)C(=O)C[C@H]1C(=O)Nc2cc(NC(=O)c3cc(OC)c(OC)c(OC)c3)c(Oc3cc(C)cc(C)c3)cc2C(=O)N1C`, the concentration for 50% growth inhibition (GI50) turned out to be 17 nM in the experiment on A549; 21 nM with HCT-116; 10 nM in the experiment on SF-295; 18 nM with LOX IMVI; 41 nM in the experiment on 786-0; 23 nM in experiment [1].
Consider `COC(=O)C[C@@H]1NC(=O)c2cc(Oc3cccc(N(C)C)c3)c(NC(=O)c3cc(OC)c(OC)c(OC)c3)cc2NC1=O`, for which the GI50 came to 3410 nM in the experiment with A549; 5250 nM with HCT-116; 3090 nM in the experiment with SF-295; 5260 nM in the experiment with LOX IMVI; 14900 nM in the experiment with 786-0; 4680 nM in experiment [1].
For the compound `COC(=O)C[C@@H]1NC(=O)c2cc(Oc3ccc(OC)cc3)c(NC(=O)c3cc(OC)c(OC)c(OC)c3)cc2NC1=O`, the GI50 (with A549; with HCT-116; in the experiment on SF-295; with LOX IMVI; in the experiment on 786-0; in experiment [1]) was more than 50000 nM in each case.
Turning to `CCN(CC)C(=O)C[C@@H]1NC(=O)c2cc(Oc3cc(C)cc(C)c3)c(NC(=O)c3cc(OC)c(OC)c(OC)c3Cl)cc2NC1=O`, the 50% growth inhibitory concentration (GI50) with A549 is 17 nM; in the experiment with HCT-116, less than 13 nM; in the experiment on SF-295, 23 nM; with LOX IMVI, less than 5 nM; in the experiment on 786-0 it was 40 nM.
In the same order, the values of `CCCCOC(=O)C[C@@H]1NC(=O)c2cc(Oc3cc(C)cc(C)c3)c(NC(=O)c3cc(OC)c(OC)c(OC)c3)cc2NC1=O` are 1860 nM, 510 nM, 1910 nM, 3980 nM and 1910 nM.
